Assay [1] deals with Human immunodeficiency virus 1. Put plainly: Antiviral activity against HIV1 LAI assessed as inhibition of viral-induced cytopathicity in MT4 cells by MTT method. The format is functional, organism-based. The following applies: Human immunodeficiency virus 1, LAI.
Assay [2] in a line: Selectivity index, ratio of CC50 for MT4 cells to IC50 for HIV1 LAI. In kind it is functional.
Assay [3] deals with Human immunodeficiency virus 1. Description: Antiviral activity against HIV1 with RT 103N mutant assessed as inhibition of viral-induced cytopathicity in MT4 cells by MTT method. In kind it is functional, organism-based. The following applies: Human immunodeficiency virus 1, MT4.
In assay [4] the test system is Human immunodeficiency virus 1. Put plainly: Antiviral activity against HIV1 RT 100I/103N mutant assessed as inhibition of viral-induced cytopathicity in MT4 cells by MTT method. In kind it is functional, organism-based. The following applies: Human immunodeficiency virus 1, MT4.
Assay [5] deals with Human immunodeficiency virus 1. Description: Antiviral activity against HIV1 RT 103N/181C mutant assessed as inhibition of viral-induced cytopathicity in MT4 cells by MTT method. The format is functional, organism-based. Particulars: Human immunodeficiency virus 1, MT4.
In assay [6] the test system is Human immunodeficiency virus 1. Put plainly: Antiviral activity against HIV1 RT 181C mutant assessed as inhibition of viral-induced cytopathicity in MT4 cells by MTT method. In kind it is functional, organism-based. The following applies: Human immunodeficiency virus 1, MT4.
Assay [7] deals with Human immunodeficiency virus 1. Description: Antiviral activity against HIV1 RT 100I mutant assessed as inhibition of viral-induced cytopathicity in MT4 cells by MTT method. The following applies: Human immunodeficiency virus 1, MT4. The format is functional, organism-based.
The subject of assay [8] is Human immunodeficiency virus 1. Description: Antiviral activity against HIV1 RT 188L mutant assessed as inhibition of viral-induced cytopathicity in MT4 cells by MTT method. The format is functional, organism-based. The following applies: Human immunodeficiency virus 1, MT4.

Consider `CCc1c(C)[nH]c(=O)c(-c2ccco2)c1Oc1cc(C)cc(C)c1`, for which the concentration for half-maximal inhibition (IC50) in assay [1] is 15.8 nM. Moreover, the “Ratio CC50/IC50” value in assay [2] worked out at 126.
For the compound `CCOC(=O)c1c(Oc2cc(C)cc(C)c2)c(CC)c(C)[nH]c1=O`, the IC50 in assay [1] came out at 631 nM.
Consider `CCc1c(C)[nH]c(=O)c(SC)c1Oc1cc(C)cc(C)c1`, for which the IC50 came to 1.99 nM in assay [1]; 31.6 nM in assay [3]; 63.1 nM in assay [4]; 31.6 nM in assay [5]; 31.6 nM in assay [6]; 19.9 nM in assay [7]. For the same compound, in assay [8], the IC50 is 125 nM. In assay [2], the “Ratio CC50/IC50” value turned out to be 25119.
Consider `CCSc1c(Oc2cc(C)cc(C)c2)c(CC)c(C)[nH]c1=O`, for which the IC50 in assay [1] was 125 nM.
For `CCc1c(Oc2cc(C)cc(C)c2)cc(=O)[nH]c1C`, the IC50 in assay [1] was determined as 398 nM.
On to `CCc1c(C)[nH]c(=O)c(C2CC2)c1Oc1cc(C)cc(C)c1`, for which the IC50 in assay [1] was 6.3 nM; in assay [3], 199 nM; in assay [6], 158 nM; in assay [7] it was 39.8 nM; in assay [8] it was 158 nM. Moreover, the “Ratio CC50/IC50” value in assay [2] is 1259.
On to `CCc1c(C)[nH]c(=O)c(C(C)C)c1Oc1cc(C)cc(C)c1`, for which the IC50 in assay [1] was 19.9 nM; in assay [3] it was 39.8 nM; in assay [6], 39.8 nM; in assay [7], 12.5 nM; in assay [8], 31.6 nM. Besides, the “Ratio CC50/IC50” value in assay [2] amounted to 5012.
On to `CCc1c(C)[nH]c(=O)c([S+](C)[O-])c1Oc1cc(C)cc(C)c1` (stereo unspecified), for which the IC50 in assay [1] came out at 15.8 nM. Moreover, the “Ratio CC50/IC50” value in assay [2] is recorded as 6309.
Taken in the same sequence, the figures for `CCc1c(C)[nH]c(=O)c(CO)c1Oc1cc(C)cc(C)c1` were 19.9 nM and 5012.
On to `CCc1c(C)[nH]c(=O)c(/C=C/I)c1Oc1cc(C)cc(C)c1`, for which, in assay [1], the half-inhibitory concentration (IC50) amounted to 100 nM.
The same measure, in the same setting: the value for `CCc1c(C)[nH]c(=O)c(/C=C/CO)c1Oc1cc(C)cc(C)c1` was 63.1 nM.
Regarding `CCc1c(C)[nH]c(=O)c(C#Cc2ccccc2)c1Oc1cc(C)cc(C)c1`, the IC50 in assay [1] is 15800 nM.
On to `CCc1c(C)[nH]c(=O)c(C(F)(F)F)c1Oc1cc(C)cc(C)c1`, for which the IC50 in assay [1] came out at 3.1 nM; in assay [3] it was 12.5 nM; in assay [6], 50.1 nM; in assay [7] it was 31.6 nM; in assay [8], 199 nM. Moreover, the “Ratio CC50/IC50” value in assay [2] was 12589.
With `CCc1c(C)[nH]c(=O)c(CC)c1Oc1cc(C)cc(C)c1`, the concentration for half-maximal inhibition (IC50) came out at 3.1 nM in assay [1]; 39.8 nM in assay [3]; 39.8 nM in assay [6]; 12.5 nM in assay [7]; 63.1 nM in assay [8]. Besides, in assay [2], the “Ratio CC50/IC50” value stood at 3162.
As to `CCc1c(C)[nH]c(=O)c(/C=N/O)c1Oc1cc(C)cc(C)c1`, the IC50 in assay [1] worked out at 31.6 nM.
For the compound `CCc1c(C)[nH]c(=O)c(Sc2ccccc2)c1Oc1cc(C)cc(C)c1`, the IC50 in assay [1] amounted to 10 nM; in assay [3], 794 nM; in assay [4] it was 1580 nM; in assay [5], 1580 nM; in assay [6], 158 nM; in assay [7], 125 nM. Also, the IC50 in assay [8] worked out at 794 nM. In addition, the “Ratio CC50/IC50” value in assay [2] amounted to 5012.
For `CCc1c(C)[nH]c(=O)c(Cl)c1Oc1cc(C)cc(C)c1`, the IC50 in assay [1] stood at 6.3 nM; in assay [3], 19.9 nM; in assay [6] it was 100 nM; in assay [7] it was 31.6 nM; in assay [8], 398 nM. For the same compound, in assay [2], the “Ratio CC50/IC50” value came out at 10000.
Turning to `CCc1c(C)[nH]c(=O)c(Br)c1Oc1cc(C)cc(C)c1`, the IC50 in assay [1] came out at 1.99 nM; in assay [3] it was 39.8 nM; in assay [4], 63.1 nM; in assay [5], 158 nM; in assay [6], 63.1 nM; in assay [8], 631 nM. Further, the “Ratio CC50/IC50” value in assay [2] turned out to be 90119.
Turning to `CCc1c(C)[nH]c(=O)c(SCCC(N)=O)c1Oc1cc(C)cc(C)c1`, the IC50 in assay [1] is 12.5 nM; in assay [3], 316 nM; in assay [6], 794 nM; in assay [7] it was 158 nM; in assay [8] it was 2510 nM. Besides, the “Ratio CC50/IC50” value in assay [2] was determined as 1995.
Turning to `O=C1Nc2ccc(Cl)cc2C(C#CC2CC2)(C(F)(F)F)O1` (single isomer, unassigned) [EFAVIRENZ], in assay [4], the IC50 was 1000 nM.
Regarding `CCc1c(C)[nH]c(=O)c(I)c1Oc1cc(C)cc(C)c1`, the half-maximal inhibitory concentration (IC50) in assay [1] is 1.25 nM; in assay [3], 3.16 nM; in assay [4], 19.9 nM; in assay [5], 39.8 nM; in assay [6] it was 19.9 nM; in assay [7], 6.31 nM. For the same compound, the IC50 in assay [8] amounted to 50.1 nM. Besides, the “Ratio CC50/IC50” value in assay [2] stood at 9000.
On to `CCc1c(C)[nH]c(=O)c(C(=O)N(C)C)c1Oc1cc(C)cc(C)c1`, for which the IC50 in assay [1] was found to be 5020 nM.
On the same count and under the same terms, to `CCc1c(C)[nH]c(=O)c(C#N)c1Oc1cc(C)cc(C)c1` belongs 79.4 nM; to `CCc1c(C)[nH]c(=O)c(-c2ccsc2)c1Oc1cc(C)cc(C)c1`, 50.1 nM.
The same measure, in the same setting: the value for `CCOC(=O)/C=C/c1c(Oc2cc(C)cc(C)c2)c(CC)c(C)[nH]c1=O` was 6310 nM.
As to `C=Cc1c(Oc2cc(C)cc(C)c2)c(CC)c(C)[nH]c1=O`, the IC50 is 3.1 nM in assay [1]; 3.1 nM in assay [3]; 200 nM in assay [5]; 19.9 nM in assay [6]; 6.3 nM in assay [7]; 12.5 nM in assay [8]. In addition, in assay [2], the “Ratio CC50/IC50” value is 6309.
On to `CCc1c(C)[nH]c(=O)c(OC)c1Oc1cc(C)cc(C)c1`, for which the IC50 in assay [1] stood at 2.5 nM; in assay [3], 79.4 nM; in assay [4], 316 nM; in assay [5] it was 501 nM; in assay [6] it was 158 nM; in assay [7], 31.6 nM. For the same compound, in assay [8], the 50% inhibitory concentration (IC50) came out at 794 nM. The “Ratio CC50/IC50” value in assay [2] is on record as 39811.
Take `C/C=C/c1c(Oc2cc(C)cc(C)c2)c(CC)c(C)[nH]c1=O`: in assay [1], the IC50 stood at 39.8 nM.

For the origin of these results see ChEMBL document CHEMBL1146329, “Structure-activity relationship in the 3-iodo-4-phenoxypyridinone (IOPY) series: The nature of the C-3 substituent on anti-HIV activity” (Bioorg Med Chem Lett, 2007).
